Reference: article PMC9286277, “Enzymatic measurement of short-chain fatty acids and application in periodontal disease diagnosis” (PLoS ONE, 2022)

How the values were obtained:
Settings in all cases: ATP, Mg2+; 0.1 M Tris-HCl pH 7.5; 37°C
[1] = target: T1, His-tagged BK (butyrate kinase; ToBKIII) (Thermosediminibacter oceani, UniProt D9S2G7); assay: coupled ADP-hexokinase/G6PDH NADPH assay; assay type: biochemical
T1 construct: gene buk; entire gene (about 1,100 bp, about 360 residues) NdeI/HindIII in pET21a(+), E. coli BL21(DE3), Ni column; C-terminal vector His tag; sense primer encodes N-terminus MTFYGILA; antisense primer encodes C-terminus EKPKEYL before HindIII site (KL)
T1 sequence (D9S2G7 1-357): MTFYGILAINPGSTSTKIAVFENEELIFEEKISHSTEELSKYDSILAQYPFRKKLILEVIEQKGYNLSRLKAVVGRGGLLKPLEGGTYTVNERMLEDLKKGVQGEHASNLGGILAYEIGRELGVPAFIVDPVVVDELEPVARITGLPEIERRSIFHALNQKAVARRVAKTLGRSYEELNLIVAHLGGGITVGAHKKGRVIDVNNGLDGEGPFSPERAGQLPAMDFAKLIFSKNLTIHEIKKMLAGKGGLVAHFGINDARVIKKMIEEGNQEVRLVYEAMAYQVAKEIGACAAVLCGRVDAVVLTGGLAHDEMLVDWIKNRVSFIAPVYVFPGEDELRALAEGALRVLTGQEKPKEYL
Excerpt: coupled ADP-hexokinase/G6PDH NADPH assay on His-tagged BK (butyrate kinase; ToBKIII)

AK (acetate kinase) = target: T2, AK (acetate kinase) (Escherichia coli, UniProt P0A6A3)
T2 construct: gene ackA
Excerpt: coupled ADP-hexokinase/G6PDH NADPH assay on AK (acetate kinase)

PK (propionate kinase) = tested on: T3, PK (propionate kinase)
T3 construct: gene tdcD
Excerpt: coupled ADP-hexokinase/G6PDH NADPH assay on PK (propionate kinase)

T2 sequence (P0A6A3 whole entry): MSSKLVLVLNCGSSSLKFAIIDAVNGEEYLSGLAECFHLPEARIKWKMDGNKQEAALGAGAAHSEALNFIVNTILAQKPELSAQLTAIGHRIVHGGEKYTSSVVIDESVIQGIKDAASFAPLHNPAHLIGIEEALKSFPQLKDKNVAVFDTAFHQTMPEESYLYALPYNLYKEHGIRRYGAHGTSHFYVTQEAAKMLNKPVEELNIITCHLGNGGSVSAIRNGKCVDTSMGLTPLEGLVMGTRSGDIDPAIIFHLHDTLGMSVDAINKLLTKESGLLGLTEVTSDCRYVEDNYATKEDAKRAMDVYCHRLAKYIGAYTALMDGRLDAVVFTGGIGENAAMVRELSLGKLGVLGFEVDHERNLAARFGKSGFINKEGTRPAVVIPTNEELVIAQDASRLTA

BK / Km [1] | AK / Km (AK (acetate kinase)) | PK / Km (PK (propionate kinase)) | SMILES
3.3 mmol |  |  | CCCCC(=O)O [C5, valeric acid]
2.1 mmol |  |  | CC(C)CC(=O)O [IC5, isovaleric acid]
8.7 mmol |  |  | CCCCCC(=O)O [C6, caproic acid]
 | 9.1 mmol | 13.2 mmol | CC(=O)O [C2, acetic acid]
3.2 mmol |  |  | CC(C)C(=O)O [IC4, isobutyric acid]
5.1 mmol |  | 1.8 mmol | CCC(=O)O [C3, propionic acid]
2.2 mmol |  | 280 mmol | CCCC(=O)O [C4, butyric acid]
